Laboratory results published in the NIST ThermoML archive (doi:10.1021/je050116g).
Numbers after ± are expanded uncertainties.

How the values were obtained:
[1] = relative permittivity at various frequencies (dimensionless); xn = mol fraction of the nth substance listed; conditions: 298.15 K, 101.33 kPa, Liquid, Frequency=0.03 MHz, Parallel plate capacitor
[2] = xn = mol fraction of the nth substance listed; conditions: 298.15 K, 101.33 kPa, Liquid
[3] = 298.15 K; 101.33 kPa; Liquid

CCCCCCO [hexan-1-ol] + CCCCCCCCCCCC
Conditions | mass density [kg/m3] | relative permittivity
[1], x1 = 0.000504 | – | 2.00799 ± 0.00036
[1], x1 = 0.001087 | – | 2.00873 ± 0.00036
[1], x1 = 0.001795 | – | 2.00963 ± 0.00036
[1], x1 = 0.002783 | – | 2.01089 ± 0.00036
[1], x1 = 0.004043 | – | 2.0125 ± 0.00036
[1], x1 = 0.005459 | – | 2.0143 ± 0.00035
[1], x1 = 0.006744 | – | 2.0159 ± 0.00034
[1], x1 = 0.008507 | – | 2.01802 ± 0.00033
[1], x1 = 0.01046 | – | 2.02024 ± 0.00031
[1], x1 = 0.01278 | – | 2.02269 ± 0.00028
[1], x1 = 0.01656 | – | 2.02639 ± 0.00026
[1], x1 = 0.02 | – | 2.02952 ± 0.00025
[1], x1 = 0.02535 | – | 2.03412 ± 0.00023
[1], x1 = 0.03116 | – | 2.03887 ± 0.00023
[1], x1 = 0.03741 | – | 2.04388 ± 0.00022
[1], x1 = 0.04472 | – | 2.0497 ± 0.00022
[1], x1 = 0.05324 | – | 2.05652 ± 0.00023
[1], x1 = 0.06176 | – | 2.06346 ± 0.00023
[1], x1 = 0.07197 | – | 2.072 ± 0.00024
[1], x1 = 0.08324 | – | 2.08177 ± 0.00025
[1], x1 = 0.0941 | – | 2.09164 ± 0.00026
[1], x1 = 0.1052 | – | 2.10222 ± 0.00027
[2], x1 = 0.00175 | 745.477 ± 0.26 | –
[2], x1 = 0.0046 | 745.539 ± 0.26 | –
[2], x1 = 0.00826 | 745.625 ± 0.26 | –
[2], x1 = 0.01788 | 745.888 ± 0.26 | –
[2], x1 = 0.02646 | 746.157 ± 0.26 | –
[2], x1 = 0.03537 | 746.455 ± 0.26 | –
[2], x1 = 0.04959 | 746.947 ± 0.26 | –
[2], x1 = 0.0656 | 747.525 ± 0.26 | –
[2], x1 = 0.07934 | 748.03 ± 0.26 | –
[2], x1 = 0.09708 | 748.704 ± 0.26 | –

CCCCCCCCO [octan-1-ol]
Conditions | mass density [kg/m3]
[3] | 821.694 ± 0.42

CCCCCCO [hexan-1-ol]
Conditions | mass density [kg/m3]
[3] | 815.275 ± 0.27

CCCO [propan-1-ol]
Conditions | mass density [kg/m3]
[3] | 799.564 ± 0.28

CCCCCCCCCO [nonan-1-ol] + CCCCCCCCCCCC
[2]
Conditions | mass density [kg/m3]
x1 = 0.00099 | 745.467 ± 0.26
x1 = 0.0047 | 745.637 ± 0.26
x1 = 0.00777 | 745.786 ± 0.26
x1 = 0.01456 | 746.133 ± 0.26
x1 = 0.02651 | 746.79 ± 0.26
x1 = 0.03533 | 747.291 ± 0.26
x1 = 0.05117 | 748.212 ± 0.26
x1 = 0.06465 | 749.011 ± 0.26
x1 = 0.08043 | 749.97 ± 0.26
x1 = 0.09832 | 751.064 ± 0.26

CCCCCO [pentan-1-ol]
Conditions | mass density [kg/m3]
[3] | 810.883 ± 0.27

CCCCCCCCCCCC [dodecane] + CO
Conditions | mass density [kg/m3] | relative permittivity
[1], x2 = 0.000771 | – | 2.00822 ± 0.00035
[1], x2 = 0.001621 | – | 2.00927 ± 0.00035
[1], x2 = 0.00274 | – | 2.01066 ± 0.00035
[1], x2 = 0.003489 | – | 2.01159 ± 0.00035
[1], x2 = 0.004562 | – | 2.01293 ± 0.00034
[1], x2 = 0.005874 | – | 2.01448 ± 0.00032
[1], x2 = 0.008056 | – | 2.01694 ± 0.0003
[1], x2 = 0.01061 | – | 2.01951 ± 0.00027
[1], x2 = 0.0131 | – | 2.02187 ± 0.00026
[1], x2 = 0.01491 | – | 2.0235 ± 0.00024
[1], x2 = 0.01897 | – | 2.02697 ± 0.00023
[1], x2 = 0.02456 | – | 2.03155 ± 0.00023
[1], x2 = 0.03063 | – | 2.03644 ± 0.00023
[1], x2 = 0.03798 | – | 2.04263 ± 0.00024
[1], x2 = 0.04663 | – | 2.05023 ± 0.00026
[1], x2 = 0.05524 | – | 2.05834 ± 0.00028
[1], x2 = 0.06621 | – | 2.06954 ± 0.00031
[1], x2 = 0.08007 | – | 2.08561 ± 0.00032
[2], x2 = 0.00135 | 745.406 ± 0.26 | –
[2], x2 = 0.00185 | 745.4 ± 0.26 | –
[2], x2 = 0.00406 | 745.379 ± 0.26 | –
[2], x2 = 0.00925 | 745.332 ± 0.26 | –
[2], x2 = 0.01113 | 745.324 ± 0.26 | –
[2], x2 = 0.01828 | 745.284 ± 0.26 | –
[2], x2 = 0.02969 | 745.265 ± 0.26 | –
[2], x2 = 0.0464 | 745.259 ± 0.26 | –
[2], x2 = 0.0642 | 745.271 ± 0.26 | –
[2], x2 = 0.08321 | 745.289 ± 0.26 | –
[2], x2 = 0.09518 | 745.306 ± 0.26 | –

CO [methanol]
Conditions | mass density [kg/m3]
[3] | 786.538 ± 0.3

CCCCCCCCCCCC [dodecane] + CCCCO
Conditions | mass density [kg/m3] | relative permittivity
[1], x2 = 0.000394 | – | 2.00775 ± 0.00034
[1], x2 = 0.001092 | – | 2.00861 ± 0.00035
[1], x2 = 0.001852 | – | 2.00955 ± 0.00035
[1], x2 = 0.002663 | – | 2.01056 ± 0.00035
[1], x2 = 0.003575 | – | 2.01169 ± 0.00035
[1], x2 = 0.004582 | – | 2.01295 ± 0.00035
[1], x2 = 0.005742 | – | 2.01438 ± 0.00034
[1], x2 = 0.007082 | – | 2.016 ± 0.00033
[1], x2 = 0.008478 | – | 2.01762 ± 0.00032
[1], x2 = 0.009996 | – | 2.0193 ± 0.0003
[1], x2 = 0.01196 | – | 2.02134 ± 0.00028
[1], x2 = 0.01472 | – | 2.02405 ± 0.00027
[1], x2 = 0.01783 | – | 2.02693 ± 0.00025
[1], x2 = 0.02067 | – | 2.02939 ± 0.00024
[1], x2 = 0.0262 | – | 2.03399 ± 0.00023
[1], x2 = 0.03349 | – | 2.03984 ± 0.00022
[1], x2 = 0.04201 | – | 2.04663 ± 0.00022
[1], x2 = 0.05197 | – | 2.05466 ± 0.00023
[1], x2 = 0.06201 | – | 2.06298 ± 0.00024
[1], x2 = 0.07269 | – | 2.07228 ± 0.00025
[1], x2 = 0.08613 | – | 2.08475 ± 0.00027
[1], x2 = 0.09876 | – | 2.09732 ± 0.00028
[2], x2 = 0.00247 | 745.45 ± 0.26 | –
[2], x2 = 0.00337 | 745.455 ± 0.26 | –
[2], x2 = 0.00504 | 745.466 ± 0.26 | –
[2], x2 = 0.0089 | 745.497 ± 0.26 | –
[2], x2 = 0.01274 | 745.535 ± 0.26 | –
[2], x2 = 0.01568 | 745.569 ± 0.26 | –
[2], x2 = 0.02553 | 745.703 ± 0.26 | –
[2], x2 = 0.04126 | 745.979 ± 0.26 | –
[2], x2 = 0.06044 | 746.372 ± 0.26 | –
[2], x2 = 0.07754 | 746.736 ± 0.26 | –
[2], x2 = 0.1034 | 747.278 ± 0.26 | –

CCCCCCCCCCCC [dodecane] + CCCCCO
Conditions | mass density [kg/m3] | relative permittivity
[1], x2 = 0.000482 | – | 2.00767 ± 0.00035
[1], x2 = 0.001089 | – | 2.00844 ± 0.00035
[1], x2 = 0.001796 | – | 2.00932 ± 0.00035
[1], x2 = 0.002589 | – | 2.01032 ± 0.00035
[1], x2 = 0.00344 | – | 2.0114 ± 0.00036
[1], x2 = 0.004549 | – | 2.0128 ± 0.00035
[1], x2 = 0.005875 | – | 2.01448 ± 0.00035
[1], x2 = 0.007295 | – | 2.01623 ± 0.00034
[1], x2 = 0.009216 | – | 2.0185 ± 0.00032
[1], x2 = 0.01162 | – | 2.02114 ± 0.0003
[1], x2 = 0.0141 | – | 2.02365 ± 0.00027
[1], x2 = 0.01688 | – | 2.02629 ± 0.00026
[1], x2 = 0.0211 | – | 2.03003 ± 0.00024
[1], x2 = 0.02571 | – | 2.03388 ± 0.00023
[1], x2 = 0.03208 | – | 2.03903 ± 0.00022
[1], x2 = 0.03962 | – | 2.045 ± 0.00022
[1], x2 = 0.04963 | – | 2.05298 ± 0.00023
[1], x2 = 0.05931 | – | 2.0609 ± 0.00023
[1], x2 = 0.07029 | – | 2.07011 ± 0.00024
[1], x2 = 0.08177 | – | 2.08023 ± 0.00025
[1], x2 = 0.09402 | – | 2.09162 ± 0.00027
[1], x2 = 0.1068 | – | 2.10429 ± 0.00028
[2], x2 = 0.00199 | 745.463 ± 0.26 | –
[2], x2 = 0.00476 | 745.503 ± 0.26 | –
[2], x2 = 0.00753 | 745.546 ± 0.26 | –
[2], x2 = 0.01643 | 745.714 ± 0.26 | –
[2], x2 = 0.02691 | 745.951 ± 0.26 | –
[2], x2 = 0.03525 | 746.159 ± 0.26 | –
[2], x2 = 0.05055 | 746.571 ± 0.26 | –
[2], x2 = 0.06514 | 746.983 ± 0.26 | –
[2], x2 = 0.08115 | 747.444 ± 0.26 | –
[2], x2 = 0.09931 | 747.979 ± 0.26 | –

CCO [ethanol]
Conditions | mass density [kg/m3]
[3] | 785.055 ± 0.29
